Data taken from PMC2729173 (Cancer research, 2009).
Where a name gives a salt, the structure may show the parent alone. Read-outs that look alike come from different tables or passages of the source.

Assays:
[1] = rat; cited from earlier work
BCRP = target: T1, BCRP (Homo sapiens, UniProt Q9UNQ0); assay type: cell-based; details: for intracellular topotecan lactone concentration: topotecan 500 ng/mL
T1 sequence (Q9UNQ0 1-655): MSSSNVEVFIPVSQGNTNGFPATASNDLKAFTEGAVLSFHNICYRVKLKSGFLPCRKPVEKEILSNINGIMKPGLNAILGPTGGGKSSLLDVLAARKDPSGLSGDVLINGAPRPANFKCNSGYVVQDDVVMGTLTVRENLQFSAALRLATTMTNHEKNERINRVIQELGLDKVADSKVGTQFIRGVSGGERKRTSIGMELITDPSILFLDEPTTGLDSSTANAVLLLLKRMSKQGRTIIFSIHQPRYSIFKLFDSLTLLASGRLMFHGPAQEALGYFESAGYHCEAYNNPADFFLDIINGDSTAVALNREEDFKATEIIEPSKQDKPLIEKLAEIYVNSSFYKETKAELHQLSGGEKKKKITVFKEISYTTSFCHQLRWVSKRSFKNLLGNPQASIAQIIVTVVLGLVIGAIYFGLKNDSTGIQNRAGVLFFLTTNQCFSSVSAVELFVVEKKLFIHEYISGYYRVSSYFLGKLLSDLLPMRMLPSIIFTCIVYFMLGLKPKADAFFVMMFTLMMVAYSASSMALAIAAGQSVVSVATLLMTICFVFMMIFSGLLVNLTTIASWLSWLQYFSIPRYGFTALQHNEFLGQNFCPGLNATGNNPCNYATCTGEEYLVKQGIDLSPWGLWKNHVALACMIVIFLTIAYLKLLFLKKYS

[2] = Intracerebral microdialysis of brain parenchymal ECF; details: topotecan 4 mg/kg i.v.; for ECF CLin-to-CLout ratio of unbound topotecan lactone: three-compartment model; for Kp: mouse, brain ECF (striatum microdialysate) vs plasma, intravenous, 4 mg/kg, ECF-to-plasma AUC ratio of unbound topotecan lactone (AUCu,ECF/AUCu,plasma), mean ±SD; for topotecan lactone ECF concentrations: Mdr1a/b−/− mice
[3] = Intracerebral microdialysis of ventricular CSF; details: topotecan 4 mg/kg i.v., three-compartment model
[4] = Topotecan lactone plasma protein binding; assay type: in vitro ADME, mice; details: mouse, unbound fraction of plasma topotecan lactone, mean ±SD

Question: With `CCCNCCOc1ccc(NC(=O)c2c[nH]c3c2C(=O)CCC3)cc1F` [CP-615,003] as the compound, how does the “accumulation in CSF relative to ECF” value [1] read?
Answer: Its value is 7 fold.

Question: Which results are given for `CCC(O)(C(=O)O)c1cc2n(c(=O)c1CO)Cc1cc3c(CN(C)C)c(O)ccc3nc1-2` (centres unmarked) [Topotecan carboxylate]?
Answer: topotecan carboxylate detection in cells (BCRP; pH 6): not detected; difference in intracellular topotecan carboxylate accumulation between Saos2-pcDNA and Saos2-BCRP cells (BCRP; pH 8, data not shown): no difference

Question: For `CC[C@@]1(O)C(=O)OCc2c1cc1n(c2=O)Cc2cc3c(CN(C)C)c(O)ccc3nc2-1` [Topotecan, Topotecan hydrochloride], which “ECF CLin-to-CLout ratio of unbound topotecan lactone” value ([2]; Bcrp1−/− mice) is on record?
Answer: Its value is 0.42 ± 0.06.

Question: What about the Kp ([2]; Bcrp1−/−, Bcrp1−/− mice) of the same compound?
Answer: The Kp was 0.42 ± 0.06.

Question: And the “ECF CLin-to-CLout ratio of unbound topotecan lactone” value ([2]; FVB wild-type mice)?
Answer: Its value is 0.36 ± 0.06.

Question: And the Kp ([2]; FVB, Mdr1a/b−/−Bcrp1−/− mice)?
Answer: Its Kp is 0.89 ± 0.07.

Question: And the “topotecan lactone ECF concentrations” value ([2]; listed as Topotecan lactone)?
Answer: The value was “below detectable limits”.

Question: And the “topotecan lactone ECF concentrations” value ([2]; listed as topotecan lactone)?
Answer: The value was “below the lower limit of detection”.

Question: What about the “ECF CLin-to-CLout ratio of unbound topotecan lactone” value ([2]; Mdr1a/b−/−Bcrp1−/− mice) of the same compound?
Answer: Its value is 0.89 ± 0.07.

Question: What about the Kp ([2]; Mdr1a/b−/−Bcrp1−/−, Mdr1a/b−/−Bcrp1−/− mice) of the same compound?
Answer: The Kp was 0.88 ± 0.07.

Question: What about the “intracellular topotecan lactone concentration” value (BCRP; Saos2-BCRP cells, 1-min incubation, pH 6) of the same compound?
Answer: The value was 0.043±0.005 ng/μg protein.

Question: And the “intracellular topotecan lactone concentration” value (BCRP; Saos2-BCRP cells, 30-min incubation, pH 6)?
Answer: Its value is 0.026 ± 0.004 ng/µg.

Question: What about the “intracellular topotecan lactone concentration” value (BCRP; Saos2-pcDNA control cells, 1-min incubation, pH 6) of the same compound?
Answer: The value was 0.063±0.01 ng/μg protein.

Question: What about the “intracellular topotecan lactone concentration” value (BCRP; Saos2-pcDNA control cells, 30-min incubation, pH 6) of the same compound?
Answer: Its value is 0.039 ± 0.003 ng/µg.

Question: And the “vCSF CLin-to-CLout ratio of unbound topotecan lactone” value ([3]; Bcrp1−/− mice)?
Answer: The value was 1.59 ± 0.16.

Question: What about the “vCSF CLin-to-CLout ratio of unbound topotecan lactone” value ([3]; FVB wild-type mice) of the same compound?
Answer: Its value is 3.01 ± 0.15.

Question: And the “vCSF CLin-to-CLout ratio of unbound topotecan lactone” value ([3]; Mdr1a/b−/− mice)?
Answer: The value was 2.57 ± 0.17.

Question: And the “vCSF CLin-to-CLout ratio of unbound topotecan lactone” value ([3]; Mdr1a/b−/−Bcrp1−/− mice)?
Answer: Its value is 0.86 ± 0.04.

Question: What about the fraction unbound ([4]; FVB, wild-type mice) of the same compound?
Answer: The fraction unbound was 0.301.

Question: What about the fraction unbound ([4]; Bcrp1−/− mice) of the same compound?
Answer: Its fraction unbound is 0.309.

Question: What about the fraction unbound ([4]; Mdr1a/b−/− mice) of the same compound?
Answer: Its fraction unbound is 0.292.

Question: And the fraction unbound ([4]; Mdr1a/b−/−Bcrp1−/− mice)?
Answer: The fraction unbound was 0.275.
